# According to patent publication US20050048128A1, “Process for producing collagen production enhancers and use thereof” (priority 2001, published 2005):
# Columns and labels:
# Format in all cases: cell-based
# [1] = tested on: new-born hamster fibroblasts; test: TGF-β production by fibroblasts, TGF-β1 Emax ImmunoAssay System (Experiment 4); settings: 24 hours, no additions = 100, relative value ± SD
# Description: To study the mechanism of the enhancement of collagen production by royal jellies and/or L-ascorbic acids, the influence of royal jelly and/or L-ascorbic acid 2-glucoside, which had been reported to enhance the production of mRNA for collagen in fibroblasts, on the production of TGF-β was examined by the following method: • (1) Assay for TGF-β: • TGF-β was assayed on TGF-β1 Emax ImmunoAssay System, commercialized by Promega Corporation, Tokyo, Japan. • (2) Assay for TGF-β produced by fibroblasts in the presence of royal jelly and/or L-ascorbic acid 2-glucoside: • TGF-β was assayed by inoculating 1×10^4 cells/well of new-born hamster fibroblasts, prepared by the method similarly as in Experiment 1, to 96-well microplates, commercialized by Nippon Becton. […]
# [2] = tested on: new-born hamster fibroblasts; test: Collagen production by L-ascorbic acid 2-glucoside or sodium L-ascorbate with or without royal jelly, seven-day culture (Experiment 3); settings: for Collagen production level: no additions = 100, relative value ± SD
# Description: Royal jelly was dissolved in D-MEM medium containing 10% (v/v) FCS to give a concentration of 200 μg/ml, and then L-ascorbic acid 2-glucoside was dissolved in the resulting medium to give a concentration of 0.2, 0.5 or 1.0 μg/ml in terms of the weight of L-ascorbic acid. As controls, L-ascorbic acid 2-glucoside was dissolved in D-MEM medium, supplemented with 10% (v/v) FCS but with no royal jelly, to give a concentration of 0.2, 0.5, or 1.0 μg/ml in terms of the weight of L-ascorbic acid. Similarly as in Experiment 1, new-born hamster fibroblasts were cultured for seven days in 6-well plates and further cultured for seven days after the supernatant in each plate was replaced with 5 ml of any of the above media, which dissolved the above-identified L-ascorbic acid 2-glucoside and royal jelly, or those prepared for use as controls. Thereafter, the collagen production level in each well was determined by the same method as in Experiment 1. As a negative control, a medium, supplemented with 200 μg/ml of royal jelly and 1 μg/ml of sodium L-ascorbate in terms of the weight of L-ascorbic acid, was added to the fibroblasts similarly as above, and the cells were cultured for seven days.
# The fibroblasts with no addition of L-ascorbic acid 2-glucoside gave a lower collagen production level similarly as that of the control in Experiment 1, independently of the addition of royal jellies. When ascorbic acid 2-glucoside was added to give a concentration of 0.2 μg/ml or more, the collagen production level was enhanced as compared with the system with no L-ascorbic acid 2-glucoside, and the level was more enhanced by the addition of royal jellies.
# [3] = tested on: new-born hamster fibroblasts; test: as above; settings: 1 μg/ml L-ascorbic acid, three days, medium replaced with fresh one, three further days; data omitted
# [4] = tested on: new-born hamster fibroblasts; test: Influence of royal jelly on the collagen production by L-ascorbic acid, significant difference test (Experiment 2)
# Description: Using the assay system for the collagen production level used in Experiment 1, it was studied the influence of royal jellies on the collagen production by L-ascorbic acids: New-born hamster fibroblasts, prepared similarly as the method in Experiment 1, were seeded in 6-well plates and cultured for seven days. […] In this experiment, three wells were used for each concentration. The results were evaluated whether there existed a significant difference between the count in a control system and those in the test systems with different concentrations of heated or unheated royal jelly, based on the count for the control system with no royal jelly that was detected by a liquid scintillation counter, as a control.
# [5] = tested on: new-born hamster fibroblasts; test: Collagen production by new-born hamster fibroblasts, [2,3-3H] proline taken into collagen (Experiment 1); settings: for Relative amount of collagen production: no addition = 100, relative value ± SD
# Description: According to conventional manner, the dorsum skin of a new-born hamster was cut and detached, and fibroblasts were isolated from the detached skin. The preparation method is outlined below: To detach the epidermis from the dermis, the debris was placed and allowed to stand at 4° C. overnight in Eagle's minimum essential medium, commercialized by Nippon Suisan Kaisha, Ltd., Tokyo, Japan, containing 0.03 mM Ca^2+, in which 500 units/ml of a dispase commercialized by Godo Shusei Co., Ltd., Tokyo, Japan, was dissolved. The detached dermis was kept at 37° C. for one hour in Dulbecco minimum essential medium (abbreviated as “D-MEM”, hereinafter), commercialized by Nippon Suisan Kaisha, Ltd., Tokyo, Japan, in which 0.25% (v/v) of a collagenase commercialized by Amano Enzyme, Aichi, Japan, was dissolved. Thereafter, the resulting cell debris of the dermis were pipetted into a cell suspension with singly dispersed cells of new-born hamster fibroblasts, followed by collecting the cells by centrifugation. The cells were suspended in phosphate-buffered saline and allowed to stand for 30 min, followed by centrifugally collecting the resulting supernatant with fibroblasts and re-suspending the cells in D-MEM supplemented with 10% (v/v) of a fetal bovine serum (abbreviated as “FCS”, hereinafter) commercialized by GIBCO Bethesda Research Laboratories, Bethesda, Md., USA, into a cell suspension for use in the following assay for collagen production level.
# The following cells were cultured in an incubator with 5% (v/v) CO2 at 37° C. Three milliliter aliquots of the cell suspension of new-born hamster fibroblasts, prepared in the above 3, were seeded in 6-well plates to give a cell density of 4×10^5 cells/well and cultured for seven days. To D-MEM supplemented with 10% (v/v) FCS was added and dissolved therein L-ascorbic acid to give a concentration of 0.0, 0.1, 0.2, 0.5, 1.0, 2.0, 5.0, 10.0, 20.0, 50.0, 100.0, or 200.0 μg/ml. Similarly as above, either a heated royal jelly or an unheated royal jelly was added to and dissolved in D-MEM supplemented with 10% (v/v) FCS to give a concentration of 0.0, 0.1, 0.2, 0.5, 1.0, 2.0, 5.0, 10.0, 20.0, 50.0, 100.0, 200.0, or 500.0 μg/ml. Five milliliter aliquot of any one of the above media supplemented with L-ascorbic acid or the heated or unheated royal jelly was added to each well of the plates, which had been removed off the culture supenatants of fibroblast cultures, followed by culturing the cells for three days. Thereafter, the supernatant in each well was replaced with five milliliters of a fresh medium supplemented with the same concentration of L-ascorbic acid or the heated or unheated royal jelly as mentioned-above, and the cells were sequentially cultured for three days, replaced with one milliliter of a fresh medium having the same concentration of L-ascorbic acid or the heated or unheated royal jelly as mentioned-above, cultured for three hours, admixed with [2,3-^3H] proline (40 Ci/mmol) commercialized by Amersham Corp., Div. Amersham International, Ill., USA, which had been dissolved in D-MEM to give a concentration of 3 μCi/well, and further cultured overnight. All the culture media, including those supplemented with L-ascorbic acid or the heated or unheated royal jelly, used in this experiment, were filtered with a 0.22 μm filter before use.
# In the above 4, after the fibroblasts of new-born hamster were cultured in the presence of [2,3-^3H] proline, collagen was extracted from the cells in a usual manner and quantified for [2,3-^3H] proline taken thereinto. The quantitation was carried out by the method disclosed by Seong-Jin Kim et al. in Dermatologic Surgery, Vol. 24, pp. 1,054-1,058 (1998). […]
# [6] = L-ascorbic acid 2-glucoside 0.2 μg/ml (as L-ascorbic acid) with royal jelly 200 μg/ml
# [7] = L-ascorbic acid 2-glucoside 0.2 μg/ml (as L-ascorbic acid), no royal jelly
compound,measurement,setting,value
O=C1O[C@H]([C@@H](O)CO)C(O)=C1O[C@H]1O[C@H](CO)[C@@H](O)[C@H](O)[C@H]1O [L-ascorbic acid 2-glucoside],Production level of TGF-β,[1]; [6],132 ± 12
same,Production level of TGF-β,[1]; [7],111 ± 5
same,Collagen production level,[2]; [6],298 ± 30
same,Collagen production level,[2]; [7],219 ± 31
same,Collagen production level,[2]; L-ascorbic acid 2-glucoside 0.5 μg/ml (as L-ascorbic acid) with royal jelly 200 μg/ml,1440 ± 70
same,Collagen production level,"[2]; L-ascorbic acid 2-glucoside 0.5 μg/ml (as L-ascorbic acid), no royal jelly",527 ± 17
same,Collagen production level,[2]; L-ascorbic acid 2-glucoside 1.0 μg/ml (as L-ascorbic acid) with royal jelly 200 μg/ml,3168 ± 318
same,Collagen production level,"[2]; L-ascorbic acid 2-glucoside 1.0 μg/ml (as L-ascorbic acid), no royal jelly",2250 ± 436
same,Concentration of L-ascorbic acid 2-glucoside at which the collagen production level was enhanced,[2]; compared with the system with no L-ascorbic acid 2-glucoside,≥ 0.2 µg/mL
same,Stability dissolved in media,"[2]; culture medium, seven days, compared with L-ascorbic acid",advantageously more stable as compared with L-ascorbic acid
Sodium L-ascorbate [L-ascorbic acid],Collagen production with medium replacement,[3],enhanced level of collagen production
same,"Enhancement of collagen production, negative control","[2]; 1 μg/ml sodium L-ascorbate (as L-ascorbic acid) with 200 μg/ml royal jelly, seven days, medium not replaced",no enhancement of collagen production
"O=C1O[C@H]([C@@H](O)CO)C([O-])=C1O.[Na+] [L-ascorbic acid, Sodium L-ascorbate]",Lowest concentration of L-ascorbic acid exerting the collagen-production action in combination with royal jelly,[4],0.2 µg/mL
same,Relative amount of collagen production,[5]; L-ascorbic acid 0.1 μg/ml,95 ± 13
same,Relative amount of collagen production,[5]; L-ascorbic acid 0.2 μg/ml,118 ± 26
same,Relative amount of collagen production,[5]; L-ascorbic acid 0.5 μg/ml,210 ± 33
same,Relative amount of collagen production,[5]; L-ascorbic acid 1.0 μg/ml,482 ± 89
same,Relative amount of collagen production,[5]; L-ascorbic acid 2.0 μg/ml,1497 ± 155
same,Relative amount of collagen production,[5]; L-ascorbic acid 5.0 μg/ml,1755 ± 151
same,Relative amount of collagen production,[5]; L-ascorbic acid 10.0 μg/ml,2089 ± 160
same,Relative amount of collagen production,[5]; L-ascorbic acid 20.0 μg/ml,2456 ± 186
same,Relative amount of collagen production,[5]; L-ascorbic acid 50.0 μg/ml,2841 ± 341
same,Relative amount of collagen production,[5]; L-ascorbic acid 100.0 μg/ml,2956 ± 500
same,Relative amount of collagen production,[5]; L-ascorbic acid 200.0 μg/ml,2863 ± 456
same,Minimum effective amount of L-ascorbic acid for producing collagen,[5]; sole use,0.5 µg/mL
same,Concentration at which the level of collagen production reached a plateau level,"[5]; sole use, no significant increase above",≥ 50 µg/mL
